Source: patent US20040018501A1, “Methods and systems for analyzing complex biological systems” (priority 2001, published 2004)
“Also recorded” adds a separate entry of the source.

Columns and labels:
[1] = system: Arabidopsis thaliana plants; assay: SOA1 phenotypic analysis of herbicide-treated plants; assay type: in vivo; conditions: for Symptom Class: three-week-old plants, foliar spray; for characteristic symptoms (phenotype): herbicide-treated plants
Arabidopsis thaliana [2] = assay: MOA1 gene expression profiling (22,000-gene microarray); conditions: for No. of Lethal Genes Altered: regulated genes compared to internal list of essential genes
Arabidopsis thaliana [3] = assay: MOA1 biochemical (metabolite) profiling by LC-MS and GC-MS; conditions: for stress-related metabolites: within one hour after spraying
[4] = system: Saccharomyces cerevisiae wild type strain BY4743; assay: AF1 yeast metabolite analysis by GC-MS and LC-MS; assay type: cell-based
Magnaporthe grisea = assay type: cell-based
[5] = numeric value standardized to mock treated

O=C(O)COc1ccc(Cl)cc1Cl [2,4-D]
tMic Dev. [1, 5]: 2 | Symptom Class [1]: 5

O=C(O)c1cc(Oc2ccc(C(F)(F)F)cc2Cl)ccc1[N+](=O)[O-] [Acifluorfen]
characteristic symptoms (phenotype) [1]: Necrotic leaf flecks

Nc1nc[nH]n1 [Amitrole]
characteristic symptoms (phenotype) [1]: leaf bleaching and leaf enlargement

COC(=O)NS(=O)(=O)c1ccc(N)cc1 [Asulam]
No. of Lethal Genes Altered (Arabidopsis thaliana [2]): 5

CCNc1nc(Cl)nc(NC(C)C)n1 [Atrazine]
characteristic symptoms (phenotype) [1]: rapid and widespread leaf necrosis

CC(C)N1C(=O)c2ccccc2NS1(=O)=O [Bentazon]
characteristic symptoms (phenotype) [1]: rapid and widespread leaf necrosis

COC(=O)c1cc(Oc2ccc(Cl)cc2Cl)ccc1[N+](=O)[O-] [Bifenox]
characteristic symptoms (phenotype) [1]: Necrotic leaf flecks

CCSC(=O)N(CC(C)C)CC(C)C [Butylate]
stress-related metabolites (Arabidopsis thaliana [3]): neither butylate nor chlorpropham treatment resulted in many changes

CC(C)OC(=O)Nc1cccc(Cl)c1 [Chloropropham]
stress-related metabolites (Arabidopsis thaliana [3]): neither butylate nor chlorpropham treatment resulted in many changes

COc1nc(C)nc(NC(=O)NS(=O)(=O)c2ccccc2Cl)n1 [Chlorsulfuron]
No. of Lethal Genes Altered (Arabidopsis thaliana [2]): 8 | characteristic symptoms (phenotype) [1]: anthocyanin accumulation in the older leaves accompanied by chlorosis of the newly emerging leaves

c1cc[n+]2c(c1)-c1cccc[n+]1CC2 [Diquat]
characteristic symptoms (phenotype) [1]: rapid and widespread leaf necrosis | tMic Dev. [1, 5]: 2 | Symptom Class [1]: 7

CN(C)C(=O)Nc1ccc(Cl)c(Cl)c1 [Diuron]
characteristic symptoms (phenotype) [1]: rapid and widespread leaf necrosis | newLeafAnthocyanins Dev. [1, 5]: newLeafAnthocyanins 0 | tMic Dev. [1, 5]: 1 | Symptom Class [1]: 7

OC(Cn1cncn1)(Cn1cncn1)c1ccc(F)cc1F [Fluconazole]
Fold Change of TMS mevalonic acid lactone ([4]; GC): 0.1434 | Fold Change of squalene ([4]; GC): 0.1999 | Fold Change of tetradecanoic acid ([4]; GC): 0.07967 | Fold Change of threonine2 ([4]; GC): 0.5053 | Fold Change of threonine3 ([4]; GC): 0.2513 | Fold Change of tms glutamine3 ([4]; GC): 0.7271 | Fold Change of tms lysine4 ([4]; GC): 0.3657 | Fold Change of tms tyrosine2 ([4]; GC): 0.8643 | Fold Change of tms tyrosine3 ([4]; GC): 0.3321 | Fold Change of valine ([4]; GC): 0.2727 | Fold Change of retinoic acid ([4]; nLC): 0 | Fold Change of salicylic/HObenzoic ([4]; nLC): 0 | Fold Change of selenoDLmethionine ([4]; nLC): −0.5748 | Fold Change of serine ([4]; nLC): 0.3936 | Fold Change of shikimic acid ([4]; nLC): 0 | Fold Change of sinapinic acid ([4]; nLC): 0 | Fold Change of sorbitol/mannitol ([4]; nLC): 0.365 | Fold Change of succinic ([4]; nLC): 0.3094 | Fold Change of sucrose ([4]; nLC): 0.3104 | Fold Change of sugar-phosphate ([4]; nLC): −0.05306 | Fold Change of tetradecanoic acid ([4]; nLC): 0.5495 | Fold Change of threonine/homoserin ([4]; nLC): 0.3257 | Fold Change of thymine ([4]; nLC): 0 | Fold Change of tryptophan ([4]; nLC): 1.649 | Fold Change of tyrosine ([4]; nLC): 0.2303 | Fold Change of uracil ([4]; nLC): 1.256 | Fold Change of uridine ([4]; nLC): 0.3463 | Fold Change of urocanic acid ([4]; nLC): 0 | Fold Change of valine ([4]; nLC): 0.3235 | Fold Change of xanthosineDiH2O ([4]; nLC): 0 | Fold Change of zeatin ([4]; nLC): 0 | Fold Change of riboflavin ([4]; pLC): 0 | Fold Change of selenoDLmethionine ([4]; pLC): −0.6865 | Fold Change of serine ([4]; pLC): 0.11 | Fold Change of sugar-phosphate ([4]; pLC): 0 | Fold Change of thiamine ([4]; pLC): 0 | Fold Change of threonine/homoserin ([4]; pLC): 0.1604 | Fold Change of thymine ([4]; pLC): 0 | Fold Change of tryptophan ([4]; pLC): 0 | Fold Change of tyrosine ([4]; pLC): 0.1099 | Fold Change of uric acid ([4]; pLC): 0 | Fold Change of urocanic acid ([4]; pLC): 0 | Fold Change of xanthosine(diH2O) ([4]; pLC): 0 | Fold Change of zeatin ([4]; pLC): 0 | Fold Change of campesterol ([4]; platform GC): 0 | Fold Change of desmosterol ([4]; platform GC): 0 | Fold Change of octadecanoic acid ([4]; platform GC): 0.082 | Fold Change of abscisic acid ([4]; platform LC): 0 | Fold Change of adenosine ([4]; platform LC): 0 | Fold Change of 4-methylcatechol ([4]; platform nLC): 0 | Fold Change of 5hydroxyLtryptophan ([4]; platform nLC): 0 | Fold Change of 6-benzylaminopurine ([4]; platform nLC): 0 | Fold Change of NacetylDglucosamine ([4]; platform nLC): 0 | Fold Change of NacetylLornithine ([4]; platform nLC): 0 | Fold Change of abscisic acid ([4]; platform nLC): 0 | Fold Change of adenine ([4]; platform nLC): 0 | Fold Change of adenosine ([4]; platform nLC): 0 | Fold Change of anthranilic acid ([4]; platform nLC): 0 | Fold Change of argininosuccinate ([4]; platform nLC): 0 | Fold Change of benzoic acid ([4]; platform nLC): 0 | Fold Change of catechol ([4]; platform nLC): 0 | Fold Change of cinnamic acid ([4]; platform nLC): 0 | Fold Change of citricanoic/itaconi ([4]; platform nLC): 0 | Fold Change of citrulline ([4]; platform nLC): 0 | Fold Change of coumaric acid ([4]; platform nLC): 0 | Fold Change of cytosine ([4]; platform nLC): 0 | Fold Change of diaminopimelic acid ([4]; platform nLC): 0 | Fold Change of dihydrofolic acid ([4]; platform nLC): 0 | Fold Change of estrone ([4]; platform nLC): 0 | Fold Change of farnesol ([4]; platform nLC): 0 | Fold Change of folic acid ([4]; platform nLC): 0 | Fold Change of gibberellic ([4]; platform nLC): 0 | Fold Change of glutamine/lysine ([4]; platform nLC): 0.3309 | Fold Change of guanine ([4]; platform nLC): 0 | Fold Change of histidine ([4]; platform nLC): 0 | Fold Change of homogentisic/uric ([4]; platform nLC): 0 | Fold Change of hydrocortisone ([4]; platform nLC): 0 | Fold Change of indole3pyruvic acid ([4]; platform nLC): 0 | Fold Change of jasmonic acid ([4]; platform nLC): 0 | Fold Change of kinetin ([4]; platform nLC): 0 | Fold Change of luteolin ([4]; platform nLC): 0 | Fold Change of malonic acid ([4]; platform nLC): 0 | Fold Change of methionine ([4]; platform nLC): 0 | Fold Change of orotic acid ([4]; platform nLC): 0 | Fold Change of phenylpyruvic acid ([4]; platform nLC): 0 | Fold Change of phosphoenolpyruvate ([4]; platform nLC): 0 | Fold Change of pinitol ([4]; platform nLC): 0 | Fold Change of porphobilinogen ([4]; platform nLC): 0 | Fold Change of 4-aminobenzoic acid ([4]; platform pLC): 0 | Fold Change of 4-methylcatechol ([4]; platform pLC): 0 | Fold Change of 5hydroxyLtryptophan ([4]; platform pLC): 0 | Fold Change of 6benzylaminopurine ([4]; platform pLC): 0 | Fold Change of NacetylDglucosamine ([4]; platform pLC): 0 | Fold Change of NacetylLglutamate ([4]; platform pLC): 0 | Fold Change of allantoic acid ([4]; platform pLC): 0 | Fold Change of anthranilic acid ([4]; platform pLC): 0 | Fold Change of argininosuccinate ([4]; platform pLC): 0 | Fold Change of biotin ([4]; platform pLC): 0 | Fold Change of caffeine ([4]; platform pLC): 0 | Fold Change of citric acid TME ([4]; platform pLC): 0 | Fold Change of cytidine ([4]; platform pLC): 0 | Fold Change of cytosine ([4]; platform pLC): 0 | Fold Change of diaminopimelic acid ([4]; platform pLC): 0 | Fold Change of dihydrofolic acid ([4]; platform pLC): 0 | Fold Change of dipicolinic acid ([4]; platform pLC): 0 | Fold Change of folic acid ([4]; platform pLC): 0 | Fold Change of glucosamine ([4]; platform pLC): 0 | Fold Change of glucosamine6PO4 ([4]; platform pLC): 0 | Fold Change of histidine ([4]; platform pLC): 0 | Fold Change of hydrocortisone ([4]; platform pLC): 0 | Fold Change of itaconic acid dimes ([4]; platform pLC): 0 | Fold Change of kinetin ([4]; platform pLC): 0 | Fold Change of luteolin ([4]; platform pLC): 0 | Fold Change of niacinamide ([4]; platform pLC): 0 | Fold Change of nopaline ([4]; platform pLC): 0 | Fold Change of phosphoenolpyruvate ([4]; platform pLC): 0 | Fold Change of progesterone ([4]; platform pLC): 0

CP(=O)(O)CCC(N)C(=O)O (stereo not shown) [Glufosinate]
No. of Lethal Genes Altered (Arabidopsis thaliana [2]): 10 | characteristic symptoms (phenotype) [1]: Chlorosis and leaf curling | tMic Dev. [1, 5]: 1 | Symptom Class [1]: 3

O=C(O)CNCP(=O)(O)O [Glyphosate]
characteristic symptoms (phenotype) [1]: anthocyanin accumulation in the older leaves accompanied by chlorosis of the newly emerging leaves | tMic Dev. [1, 5]: 2 | Symptom Class [1]: 4 | growth inhibition with aromatic amino acids included in the media (Magnaporthe grisea; 1.0 mg/ml): remediated | growth of M. grisea (Tier 4) (Magnaporthe grisea; ammonium or glutamine as nitrogen source): Little growth defect | Number of Metabolites Changed: Total # (Arabidopsis thaliana [3]; 20 min, p < 0.05): 4 | tyrosine (downstream of SOA) relative to the control (Arabidopsis thaliana [3]; after one hour): decreased

CC(C)C1(C)N=C(c2ncccc2C(=O)O)NC1=O (stereo not shown) [Imazapyr]
characteristic symptoms (phenotype) [1]: anthocyanin accumulation in the older leaves accompanied by chlorosis of the newly emerging leaves

CCc1cnc(C2=NC(C)(C(C)C)C(=O)N2)c(C(=O)O)c1 (stereo not shown) [Imazethapyr]
characteristic symptoms (phenotype) [1]: anthocyanin accumulation in the older leaves accompanied by chlorosis of the newly emerging leaves

CS(=O)(=O)c1cc(C(F)(F)F)ccc1C(=O)c1cnoc1C1CC1 [Isoxaflutole]
alterations in the expression of genes involved in the homogentisate biosynthetic pathway (Arabidopsis thaliana [2]; 1 hr): not observed | No. of Lethal Genes Altered (Arabidopsis thaliana [2]): 15 | Alpha-tocopherol levels relative to the control (Arabidopsis thaliana [3]; early time points): not significantly changed | tyrosine and phenylalanine relative to the control (Arabidopsis thaliana [3]; early time points (up to 1 hour)): up-regulated; also recorded: began to accumulate

CC(=O)N1CCN(c2ccc(OCC3COC(Cn4ccnc4)(c4ccc(Cl)cc4Cl)O3)cc2)CC1 (stereo not shown) [Ketoconazole]
# Compounds perturbed ([4]; P < 0.1, 2×MIC, two hours): 15

CSc1nnc(C(C)(C)C)c(=O)n1N [Metribuzin]
characteristic symptoms (phenotype) [1]: rapid and widespread leaf necrosis

O=C(O)c1ccccc1C(=O)Nc1cccc2ccccc12 [Naptalam]
No. of Lethal Genes Altered (Arabidopsis thaliana [2]): 3

C[n+]1ccc(-c2cc[n+](C)cc2)cc1 [Paraquat]
characteristic symptoms (phenotype) [1]: rapid and widespread leaf necrosis | Symptom Class [1]: 7

CC[C@@H]([C@H](C)O)n1ncn(-c2ccc(N3CCN(c4ccc(OC[C@@H]5CO[C@@](Cn6cncn6)(c6ccc(F)cc6F)C5)cc4)CC3)cc2)c1=O [Posaconazoie]
Fold Change of luteolin ([4]; LC): 0

CC[C@@H]([C@H](C)O)n1ncn(-c2ccc(N3CCN(c4ccc(OC[C@@H]5CO[C@@](Cn6cncn6)(c6ccc(F)cc6F)C5)cc4)CC3)cc2)c1=O [Posaconazote]
Fold Change, porphobilinogen ([4]; detected metabolite porphobilinogen, platform nLC): 0
